Experimental data reported in US11174253B2, “Compound and pharmaceutical composition containing the same” (ALPHALA CO., LTD., priority 2017, dated 2021).

Tested on: hepatocellular carcinoma cell line Hep3B
Experiment: Growth inhibition of Hep3B cells, 48 hr treatment, Hoechst 33342 nucleus count (GE InCell 2200)
Assay type: cell-based
Conditions: Homo sapiens
Experimental: The potency of selected compounds was defined by the growth inhibition ability to the hepatocellular carcinoma cell line Hep3B. The Hep3B cells were treated with selected compounds for 48 hr under 37° C., 5% CO2, and 95% relative humidity.
The number of treated cells was determined by GE InCell 2200 system, and treated cells were stained with Hoechst 33342 which can reveal the remained nucleus in culture plate. The proportion of survival cells then were calculated with the ratio of treated/non-treated cells. The growth inhibition/cytotoxic effect of selected compounds were evaluated by the following protocol of NCI-60 screening platform. The human tumor cell lines are plating on a 96 well plate in a fixed density 24 hr prior compound treatment. Compounds with multiple concentrations are then added into each well for further 48 hr incubation. Cell viability is assessed by MTS method and the potency of compound is represented by GI50 and LC50 calculated by MTS result.
Herein, the “Ratio in 10 μM (%)” in the following Tables 1-6 refers to the ratio of the number of tumor cells treated with 10 μM of selected compounds to the number of non-treated tumer cells.

[1] = Table 1, ratio of number of tumor cells treated with 10 μM compound to non-treated cells
[2] = Table 3, ratio of number of tumor cells treated with 10 μM compound to non-treated cells
[3] = Table 4, ratio of number of tumor cells treated with 10 μM compound to non-treated cells
[4] = Table 5, ratio of number of tumor cells treated with 10 μM compound to non-treated cells

Q: For `Nc1nc2ccc(CC(=O)Nc3nnc(-c4ccc([N+](=O)[O-])cc4)s3)cc2s1` [Compound 1-8, 2-(2-aminobenzo[d]thiazol-6-yl)-N-(5-(4-nitrophenyl)-1,3,4-thiadiazol-2-yl)acetamide], which viability at 10 µM [1] is on record?
A: Its viability at 10 µM is 76%.

Q: Which viability at 10 µM [1] does the source give for `CN(C)c1ccc(-c2nnc(NC(=O)Cc3ccc4nc(N)sc4c3)s2)cc1` [Compound 1-9, 2-(2-aminobenzo[d]thiazol-6-yl)-N-(5-(4-(dimethylamino)phenyl)-1,3,4-thiadiazol-2-yl)acetamide] here?
A: Its viability at 10 µM is 60%.

Q: `Nc1nc2ccc(CC(=O)Nc3nnc(-c4ccccc4OC(F)(F)F)s3)cc2s1` [Compound 1-11, 2-(2-aminobenzo[d]thiazol-6-yl)-N-(5-(2-(trifluoromethoxy)phenyl)-1,3,4-thiadiazol-2-yl)acetamide] was tested. Which viability at 10 µM [1] did it give?
A: Its viability at 10 µM is 68%.

Q: How did the viability at 10 µM [1] turn out when `Nc1nc2ccc(CC(=O)Nc3nnc(-c4ccc(I)cc4)s3)cc2s1` [Compound 1-12, 2-(2-aminobenzo[d]thiazol-6-yl)-N-(5-(4-iodophenyl)-1,3,4-thiadiazol-2-yl)acetamide] was run?
A: Its viability at 10 µM is 67%.

Q: Which viability at 10 µM [1] does the source give for `Nc1nc2ccc(CC(=O)Nc3nnc(-c4ccc(Br)c([N+](=O)[O-])c4)s3)cc2s1` [Compound 1-13, 2-(2-aminobenzo[d]thiazol-6-yl)-N-(5-(4-bromo-3-nitrophenyl)-1,3,4-thiadiazol-2-yl)acetamide] here?
A: Its viability at 10 µM is 60%.

Q: Which viability at 10 µM [1] does the source give for `CC(C)Oc1ccc(-c2nnc(NC(=O)Cc3ccc4nc(N)sc4c3)s2)cc1` [Compound 1-14, 2-(2-aminobenzo[d]thiazol-6-yl)-N-(5-(4-isopropoxyphenyl)-1,3,4-thiadiazol-2-yl)acetamide] here?
A: The viability at 10 µM was 71%.

Q: Which viability at 10 µM [1] does the source give for `CCCCOc1ccc(-c2nnc(NC(=O)Cc3ccc4nc(N)sc4c3)s2)cc1` [Compound 1-21, 2-(2-aminobenzo[d]thiazol-6-yl)-N-(5-(4-butoxyphenyl)-1,3,4-thiadiazol-2-yl)acetamide] here?
A: Its viability at 10 µM is 81%.

Q: With `CCOc1cc(OCC)c(-c2nnc(NC(=O)Cc3ccc4nc(N)sc4c3)s2)c(OCC)c1` [Compound 1-24, 2-(2-aminobenzo[d]thiazol-6-yl)-N-(5-(2,4,6-triethoxyphenyl)-1,3,4-thiadiazol-2-yl)acetamide] as the compound, how does the viability at 10 µM [1] read?
A: The viability at 10 µM was 88%.

Q: `CCOc1ccc(-c2nnc(NC(=O)Cc3ccc4nc(N)sc4c3)s2)nc1` [Compound 1-30, 2-(2-aminobenzo[d]thiazol-6-yl)-N-(5-(5-ethoxypyridin-2-yl)-1,3,4-thiadiazol-2-yl)acetamide] was tested. Which viability at 10 µM [1] did it give?
A: Its viability at 10 µM is 37%.

Q: With `CCCc1ccc(-c2nnc(NC(=O)Cc3ccc4nc(N)sc4c3)s2)cc1` [Compound 1-33, 2-(2-aminobenzo[d]thiazol-6-yl)-N-(5-(4-propylphenyl)-1,3,4-thiadiazol-2-yl)acetamide] as the compound, how does the viability at 10 µM [1] read?
A: Its viability at 10 µM is 44%.

Q: `CCOc1ccncc1-c1nnc(NC(=O)Cc2ccc3nc(N)sc3c2)s1` [Compound 1-34, 2-(2-aminobenzo[d]thiazol-6-yl)-N-(5-(4-ethoxypyridin-3-yl)-1,3,4-thiadiazol-2-yl)acetamide] was tested. Which viability at 10 µM [1] did it give?
A: The viability at 10 µM was 78%.

Q: With `CCOc1ccc(-c2nnc(N(C)C(=O)Cc3ccc4nc(N)sc4c3)s2)c(OCC)c1` [Compound 1-36, 2-(2-aminobenzo[d]thiazol-6-yl)-N-(5-(2,4-diethoxyphenyl)-1,3,4-thiadiazol-2-yl)-N-methylacetamide] as the compound, how does the viability at 10 µM [1] read?
A: Its viability at 10 µM is 53%.

Q: Which viability at 10 µM (Table 2, ratio of number of tumor cells treated with 10 μM compound to non-treated cells) does the source give for `Nc1nc2ccc(CC(=O)Nc3nnc(-c4ccccc4OC(F)(F)F)o3)cc2s1` [Compound 2-4, 2-(2-aminobenzo[d]thiazol-6-yl)-N-(5-(2-(trifluoromethoxy)phenyl)-1,3,4-oxadiazol-2-yl)acetamide] here?
A: The viability at 10 µM was 88%.

Q: `COc1ccc(-c2sc(NC(=O)Cc3ccc4nc(N)sc4c3)nc2-c2ccc(C)cc2)cc1OC` [Compound 3-5, 2-(2-aminobenzo[d]thiazol-6-yl)-N-(5-(3,4-dimethoxyphenyl)-4-(p-tolyl)thiazol-2-yl)acetamide] was tested. Which viability at 10 µM [2] did it give?
A: The viability at 10 µM was 85%.

Q: With `CCCOc1ccc(-c2nc(NC(=O)Cc3ccc4nc(N)sc4c3)sc2-c2ccc(F)cc2)cc1` [Compound 3-6, 2-(2-aminobenzo[d]thiazol-6-yl)-N-(5-(4-fluorophenyl)-4-(4-propoxyphenyl)thiazol-2-yl)acetamide] as the compound, how does the viability at 10 µM [2] read?
A: Its viability at 10 µM is 83%.

Q: `Cc1ccc(-c2nc(NC(=O)Cc3ccc4nc(N)sc4c3)sc2-c2cc(C(F)(F)F)cc(C(F)(F)F)c2)cc1` [Compound 3-7, 2-(2-aminobenzo[d]thiazol-6-yl)-N-(5-(3,5-bis(trifluoromethyl)phenyl)-4-(p-tolyl)thiazol-2-yl)acetamide] was tested. Which viability at 10 µM [2] did it give?
A: Its viability at 10 µM is 78%.

Q: For `COc1cccc(-c2nc(NC(=O)Cc3ccc4nc(N)sc4c3)sc2Br)c1` [Compound 3-8, 2-(2-aminobenzo[d]thiazol-6-yl)-N-(5-bromo-4-(3-methoxyphenyl)thiazol-2-yl)acetamide], which viability at 10 µM [2] is on record?
A: Its viability at 10 µM is 84%.

Q: For `CCOc1ccc(-c2cnc(NC(=O)Cc3ccc4nc(N)sc4c3)s2)cc1` [Compound 3-11, 2-(2-aminobenzo[d]thiazol-6-yl)-N-(5-(4-ethoxyphenyl)thiazol-2-yl)acetamide], which viability at 10 µM [2] is on record?
A: Its viability at 10 µM is 60%.

Q: With `CCOc1ccc(-c2csc(NC(=O)Cc3ccc4nc(N)sc4c3)n2)c(OCC)c1` [Compound 3-12, 2-(2-aminobenzo[d]thiazol-6-yl)-N-(4-(2,4-diethoxyphenyl)thiazol-2-yl)acetamide] as the compound, how does the viability at 10 µM [2] read?
A: Its viability at 10 µM is 50%.

Q: Which viability at 10 µM [2] does the source give for `CCOc1ccc(-c2nc(NC(=O)Cc3ccc4nc(N)sc4c3)sc2Oc2ccccc2)cc1` [Compound 3-13, 2-(2-aminobenzo[d]thiazol-6-yl)-N-(4-(4-ethoxyphenyl)-5-phenoxythiazol-2-yl)acetamide] here?
A: Its viability at 10 µM is 58%.

Q: How did the viability at 10 µM [2] turn out when `CCOc1ccc(-c2nc(NC(=O)Cc3ccc4nc(N)sc4c3)sc2Cc2ccccc2)cc1` [Compound 3-14, 2-(2-aminobenzo[d]thiazol-6-yl)-N-(5-benzyl-4-(4-ethoxyphenyl)thiazol-2-yl)acetamide] was run?
A: Its viability at 10 µM is 76%.

Q: Which viability at 10 µM [3] does the source give for `CCOc1ccc(-c2ccc(NC(=O)Cc3ccc4nc(N)sc4c3)s2)cc1` [Compound 4-2, 2-(2-aminobenzo[d]thiazol-6-yl)-N-(5-(4-ethoxyphenyl)thiophen-2-yl)acetamide] here?
A: Its viability at 10 µM is 89%.

Q: `CCOc1ccc(-c2cnc(NC(=O)Cc3ccc4nc(N)sc4c3)[nH]2)c(OCCOC)c1` [Compound 4-3, 2-(2-aminobenzo[d]thiazol-6-yl)-N-(5-(4-ethoxy-2-(2-methoxyethoxy)phenyl)-1H-imidazol-2-yl)acetamide] was tested. Which viability at 10 µM [3] did it give?
A: The viability at 10 µM was 40%.

Q: How did the viability at 10 µM [3] turn out when `CCOc1ccc(-c2cnc(NC(=O)Cc3ccc4nc(N)sc4c3)[nH]2)c(OCC)c1` [Compound 4-4, 2-(2-aminobenzo[d]thiazol-6-yl)-N-(5-(2,4-diethoxyphenyl)-1H-imidazol-2-yl)acetamide] was run?
A: The viability at 10 µM was 40%.

Q: With `O=C(Nc1nc(-c2ccc(Br)cc2)c(Oc2ccccc2)s1)c1ccc([N+](=O)[O-])s1` [Compound 5-1, N-(4-(4-bromophenyl)-5-phenoxythiazol-2-yl)-5-nitrothiophene-2-carboxamide] as the compound, how does the viability at 10 µM [4] read?
A: The viability at 10 µM was 66%.

Q: `O=C(Nc1nc(-c2cccc([N+](=O)[O-])c2)c(Oc2ccccc2)s1)c1ccc([N+](=O)[O-])s1` [Compound 5-3, 5-nitro-N-(4-(3-nitrophenyl)-5-phenoxythiazol-2-yl)thiophene-2-carboxamide] was tested. Which viability at 10 µM [4] did it give?
A: The viability at 10 µM was 82%.

Q: With `COc1cccc(-c2nc(NC(=O)c3ccc([N+](=O)[O-])s3)sc2Oc2ccccc2)c1` [Compound 5-4, N-(4-(3-methoxyphenyl)-5-phenoxythiazol-2-yl)-5-nitrothiophene-2-carboxamide] as the compound, how does the viability at 10 µM [4] read?
A: The viability at 10 µM was 63%.
